Laboratory results from PMC3907559, “KDT501, a Derivative from Hops, Normalizes Glucose Metabolism and Body Weight in Rodent Models of Diabetes” (PLoS ONE, 2014).

How the values were obtained:
[1] = system: human subcutaneous adipocytes; test: Lipogenesis in human subcutaneous adipocytes (Oil Red O); assay type: cell-based; details: 10 days, relative to DMSO
Description: (§1) Murine 3T3-L1 preadipocytes were maintained in DMEM supplemented with 10% FBS as described earlier. Cells were seeded at an initial density of approximately […] in 24-well plates. After confluence, cells were treated with KDT501 ([…]), rosiglitazone (10 µM), or DMSO on day 0. Cells were differentiated in differentiation medium consisting of 10% FBS/DMEM, 0.5 mM methylisobutylxanthine, 0.5 µM dexamethasone, and 10 µg/mL insulin. After two days, the medium was changed to progression medium consisting of 10 µg/mL insulin in 10% FBS/DMEM followed by 2 more days in maintenance medium consisting of 10% FBS/DMEM. KDT501 or rosiglitazone were included throughout the maturation phase (day 6/day 7). Human subcutaneous primary adipocytes were maintained as described for 3T3L1 adipocytes and treated with rosiglitazone (1 µM), KDT501 (10 µM), telmisartan (10 µM), DHA (10 µM) or PGJ2 (10 µM) for 10 days. Intracellular lipid was quantified with Oil O-Red staining using an adipogenesis assay kit from (Millipore, Billerica, MA). The medium was carefully discarded and washed twice with PBS. 300 µL Of Oil O-Red solution were added and incubated for 15 minutes at room temperature. The cells were washed, and bound dye was extracted and transferred to a 96 well plate. Absorbance was measured at 530 nm using a plate reader (Thermo Electron Corp.). Fold change relative to DMSO control was calculated from four independent wells for each condition. Data represent Mean ± SD.

THP-1 cells = test: LPS-stimulated inflammatory mediators in THP-1 cells; assay type: cell-based, human; details: 1 hour pre-incubation, LPS 1 µg/mL overnight, various concentrations (KDT501 6.25 to 50 µM)
Description: THP-1 cells were maintained in RPMI1640 in the presence of 10% serum according to manufacturer's instructions as described earlier. The cells were pre-incubated with various concentrations of test compounds (KDT501, rosiglitazone, telmisartan, DHA or PGJ2) in the presence of 1% serum medium for 1 hour, then stimulated with TNF-α (10 ng/ml) or LPS (1 µg/ml) overnight (16–20 hours. Cytokines were assayed using a Milliplex MAP human cytokine/chemokine kit and Luminex 100™ IS. Data were analyzed using a five-parameter logistic method and represented as Mean ±SD of four independent samples.

[2] = system: Zucker Diabetic Fatty (ZDF) rats; test: ZDF rats, oral dosing twice daily (weight, HbA1c, glucose, OGTT); assay type: in vivo, rat
Description: Male ZDF rats were obtained from Charles River Laboratories at approximately 7 weeks of age. Rats were maintained ad lib on Purina #5008 diet, delivering approximately 17% of calories from fat. Animals with fasting glucose between 150–350 mg/dL were randomized based on glucose and body weight. Test articles were prepared in 0.5% (w/v) methylcellulose + 0.2% (w/v) Tween 80 and given by oral gavage twice daily. Rats (10/group, 6 treatment groups) were administered KDT501 (100, 150, or 200 mg/kg), metformin (200 mg/kg), pioglitazone (30 mg/kg) or vehicle control for up to 32 days. Body weights and food intake were determined weekly. Blood was collected via tail bleed and whole blood glucose was measured on days 1, 8, 15 and 29. Blood was collected in 5 animals on days 15 and 29 for determination of glucose, insulin, lipids, hematocrit, and HbA1c. Animals were fasted overnight and OGTT was conducted on days 31 and 32 for determination of glucose and insulin levels. A second ZDF rat study was conducted and the resulting data on total cholesterol are presented. Statistical calculations were performed (JMP version, SAS Institute, Cary, NC). One-way ANOVA with Dunnett's test for post hoc determinations were used to compare vehicle treated control. Data were expressed as mean ± SEM.

DIO mice = test: DIO mice, oral dosing twice daily (body fat, OGTT); assay type: in vivo, C57Bl6/J male mice; details: for OGTT glucose AUC / OGTT insulin AUC: four weeks, vs controls
Description: C57Bl6/J male mice were 15 weeks old at the start of the experiment. In general, DIO models are initiated at an early age to evaluate effects on obesity. However, older, overweight mice were used in this study to represent middle-aged human subjects for the assessment of metabolic parameters associated with weight loss/diabetes. The mice were housed individually in cages at 72±4°F with a relative humidity of 30–70% with 12 hour light- dark cycle. High fat diet (40% Cal) TD95217 (Teklad Custom Research Diet) was used in this study. The test compounds were administered orally twice per day at 12 hour intervals (10 mL/kg) in 0.5% methylcellulose and 0.2% Tween 80 (w/v). Mice were randomly allocated on the basis of body weight to seven groups (N = 10/group), with five animals for the oral glucose tolerance test (OGTT) and 5 animals for the insulin tolerance test. […] Body weight and food consumption were determined weekly. After 30 days, the mice were fasted overnight, blood was drawn through the tail vein and baseline blood glucose was measured using a glucose analyzer. One hour later, mice were given an oral gavage of glucose solution in water (4 ml/kg, 2 g/kg) and blood samples were taken at 15, 30, 60, and 120 min to determine plasma glucose and insulin levels. Five days before the start of the experiment (t = −5 days) and again at the end of the experiment (t = 28 days), body fat was determined using QNMR. With the exception of the group treated with 200 mg/kg KDT501, 10 animals/group were used in the determinations. Insulin and HbA1c glucose levels were determined on days 1, 15 and 29. Statistical calculations were performed (JMP version, SAS Institute, Cary, NC). One-way ANOVA with Dunnett's test for post hoc determinations were used to compare vehicle treated control. Data were expressed as mean ± SEM.

ZDF rats = test: Second ZDF rat study (total cholesterol, triglycerides in plasma); assay type: in vivo; details: twice daily oral
Description: Blood was collected via tail bleed and whole blood glucose was measured on days 1, 8, 15 and 29. Blood was collected in 5 animals on days 15 and 29 for determination of glucose, insulin, lipids, hematocrit, and HbA1c. Animals were fasted overnight and OGTT was conducted on days 31 and 32 for determination of glucose and insulin levels. A second ZDF rat study was conducted and the resulting data on total cholesterol are presented. Statistical calculations were performed (JMP version, SAS Institute, Cary, NC). One-way ANOVA with Dunnett's test for post hoc determinations were used to compare vehicle treated control. Data were expressed as mean ± SEM.

RAW264.7 cells = test: LPS-activated PGE2 and NO in RAW264.7 cells; assay type: cell-based; details: results not shown
[3] = system: human subcutaneous adipocytes; test: Gene expression profile and gene ontology in human subcutaneous adipocytes; assay type: cell-based; details: 5 days
Description: Human subcutaneous primary adipocytes were maintained as described earlier. Cells were seeded at an initial density of approximately 2×10^6 cells in 6-well plates with PGM-2 medium (2 mL medium/well) and allowed to grow for 24 hr to confluence. Cells were treated with test compounds KDT501 (25 µM), rosiglitazone (1 µM), telmisartan (10 µM), or DMSO in adipocyte differentiating medium. The differentiation medium consisted of indomethacin, methylisobutylxanthine, dexamethasone, and insulin from PGM-2 single aliquots. After 5 days, the cells were washed in PBS, frozen in liquid nitrogen and shipped to Expression Analysis (Durham, NC) in dry ice. Three independent plates were used for each condition. RNA was extracted using the miRNeasy Mini Kit (Qiagen) as described by the manufacturer. RNA was isolated and expression profiling was performed using the Ambion WT Expression Kit (Life Technologies). Labeled target, which was hybridized to GeneChip Human Gene 1.0 ST Arrays (Affymetrix), was prepared essentially as described by the manufacturer. This cDNA was then used as a template for in vitro transcription using T7 RNA Polymerase to produce anti-sense RNA, which was then converted into single-stranded sense cDNA that was fragmented and labeled with biotin prior to hybridization to the GeneChip Arrays. […]

3T3L1 adipocytes = test: Lipogenesis in 3T3L1 adipocytes (Oil Red O); assay type: cell-based, murine; details: 10 µM, 6 days, relative to DMSO
Description: as §1, with “The cells were washed, and bound dye was extracted and transferred to a 96 well plate.” left out, “Data represent Mean ± SD.” left out

PPARγ = molecular target: T1, PPARγ (Homo sapiens, UniProt P37231); test: PPARγ reporter assay (Indigo Biosciences); assay type: cell-based
T1 sequence (P37231 1-505): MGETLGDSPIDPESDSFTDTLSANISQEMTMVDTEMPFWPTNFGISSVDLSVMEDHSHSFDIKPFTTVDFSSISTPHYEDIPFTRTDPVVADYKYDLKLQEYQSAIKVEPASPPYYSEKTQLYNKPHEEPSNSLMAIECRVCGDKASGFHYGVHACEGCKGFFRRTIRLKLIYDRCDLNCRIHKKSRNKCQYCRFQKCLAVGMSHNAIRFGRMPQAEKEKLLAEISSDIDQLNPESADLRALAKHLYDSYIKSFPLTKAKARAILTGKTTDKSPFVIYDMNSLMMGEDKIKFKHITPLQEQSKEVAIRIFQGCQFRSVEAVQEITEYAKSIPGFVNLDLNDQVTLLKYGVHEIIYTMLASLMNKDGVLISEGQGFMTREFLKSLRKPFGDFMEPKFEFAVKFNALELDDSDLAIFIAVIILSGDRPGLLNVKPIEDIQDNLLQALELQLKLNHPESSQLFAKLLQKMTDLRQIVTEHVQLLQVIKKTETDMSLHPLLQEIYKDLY
Description: PPAR assay kits from Indigo Biosciences and supplemented protocols were used in this study. Briefly, the reporter cells were treated in triplicates with various concentrations of KDT501 (25–0.78 µM). Telmisartan (10–0.625 µM), GW590735 (10–0.03 µM), and GW0742 (1–0.01 µM) were used as positive controls for PPARγ, PPARα and PPARδ respectively. […]. Cells were incubated for 20 hours as per the protocol and read using a luminometer (Victor2, Perkin Elmer). Average relative light unit (RLU) values from blank wells were subtracted from all the samples. The final data were compared with DMSO control and statistical analyses were performed using GraphPad Prism.

`CC/C=C\C/C=C\C/C=C\C/C=C\C/C=C\C/C=C\CCC(=O)O` [DHA] was tested, and the “lipogenesis, fold increase” value ([1]; 10 µM) was “No significant changes”, the “LPS stimulated IL-6” value (THP-1 cells) was “inhibited these cytokines in a concentration-dependent manner” and the “LPS stimulated MCP-1” value (THP-1 cells) was “inhibited these cytokines in a concentration-dependent manner”. For the same compound, the “LPS stimulated RANTES” value (THP-1 cells) was “inhibited these cytokines in a concentration-dependent manner”.
`CCCCC/C=C/C=C1/C(=O)C=C[C@@H]1C/C=C\CCCC(=O)O` [PGJ2, 5-deoxy-Δ12,14-PGJ2] was tested, and the “lipogenesis, fold increase” value ([1]; 10 µM) was 8.8 fold, the “LPS stimulated IL-6” value (THP-1 cells) was “inhibited these cytokines in a concentration-dependent manner” and the “LPS stimulated MCP-1” value (THP-1 cells) was “inhibited these cytokines in a concentration-dependent manner”. The “LPS stimulated RANTES” value (THP-1 cells) was “inhibited these cytokines in a concentration-dependent manner”.
In the case of `CN(C)C(=N)N=C(N)N` [metformin], the body weight ([2]; 200 mg/kg twice daily oral (metformin group)) is reported as “gained weight”, the “OGTT glucose AUC” value (DIO mice; 200 mg/kg twice per day oral) is reported as “significantly reduced” and the “OGTT insulin AUC” value (DIO mice; 200 mg/kg twice per day oral) is reported as “significantly reduced”. The “fat mass by the end of the study (QNMR)” value (DIO mice; 200 mg/kg twice per day oral, vs vehicle) was “Significant reduction” and the “total cholesterol in plasma” value (ZDF rats; metformin group) was “neither metformin nor pioglitazone had this effect”.
In the case of `CCc1ccc(CCOc2ccc(CC3SC(=O)NC3=O)cc2)nc1` (centres unmarked) [pioglitazone], the “HbA1c at the end of the study” value ([2]; 30 mg/kg twice daily oral) is reported as “approximately half that of the vehicle-treated control”, the body weight ([2]; 30 mg/kg twice daily oral) is reported as “gained weight” and the “OGTT glucose AUC” value (DIO mice; 30 mg/kg twice per day oral) is reported as “significantly reduced”. For the same compound, the “OGTT insulin AUC” value (DIO mice; 30 mg/kg twice per day oral) was “significantly reduced”, the “total cholesterol in plasma” value (ZDF rats; pioglitazone group) was “neither metformin nor pioglitazone had this effect” and the triglycerides in plasma (ZDF rats; pioglitazone group, day 15 and day 30) was “reduced triglycerides”.
For `CN(CCOc1ccc(CC2SC(=O)NC2=O)cc1)c1ccccn1` (centres unmarked) [rosiglitazone], the “lipogenesis, fold increase” value ([1]; 1 µM) was 10.3 fold, the “induction of LPS-activated PGE2” value (RAW264.7 cells) was “not with rosiglitazone” and the “number of transcripts stimulated at least 2-fold” value ([3]; 1 µM) was 62. The “lipogenesis, fold increase” value (3T3L1 adipocytes) was “about 2.8 fold”, the “LPS stimulated IL-6” value (THP-1 cells) was “did not significantly affect” and the “LPS stimulated MCP-1” value (THP-1 cells) was “did not significantly affect”. For the same compound, the “LPS stimulated RANTES” value (THP-1 cells) was “did not significantly affect”.
`CCCc1nc2c(C)cc(-c3nc4ccccc4n3C)cc2n1Cc1ccc(-c2ccccc2C(=O)O)cc1` [telmisartan] was tested, and the “lipogenesis, fold increase” value ([1]; 10 µM) was 3.5 fold, the “number of transcripts changed” value ([3]; 10 µM, 5 up and 3 down, common to rosiglitazone and KDT501) was 8 and the EC50 (PPARγ) was 13.4 µM. The “LPS stimulated IL-6” value (THP-1 cells) was “inhibited these cytokines in a concentration-dependent manner”, the “LPS stimulated MCP-1” value (THP-1 cells) was “inhibited these cytokines in a concentration-dependent manner” and the “LPS stimulated RANTES” value (THP-1 cells) was “inhibited these cytokines in a concentration-dependent manner”.
